Laboratory results taken from ChEMBL document CHEMBL3137667, “[Drug-induced liver injury; fourteenth updated edition of the bibliographic database of liver injuries and related drugs]” (Gastroenterol Clin Biol, 2004).

How the values were obtained:
[1] = human
[2] = human; remark: listed apart in the source
[3] = human; remark: listed apart in the source
[4] = human; remark: listed apart in the source
[5] = human; remark: listed apart in the source
[6] = Highest frequency of acute liver toxicity observed during clinical trials, expressed as a percentage. [column '% AIGUE' in source]; conditions: human
[7] = human; remark: listed apart in the source
[8] = human; remark: listed apart in the source
[9] = human; remark: listed apart in the source
[10] = Times to onset, minimal and maximal, observed in the indexed observations. [column 'DELAI' in source]; conditions: human
[11] = human; remark: listed apart in the source
[12] = human, serum
[13] = human, serum, 4383 h
[14] = Proposed mechanism(s) of liver damage. [column 'MEC' in source]; conditions: human
[15] = Highest frequency of moderate liver toxicity observed during clinical trials, expressed as a percentage. [column '% BIOL' in source]; conditions: human
[16] = Comments (NB not yet translated). [column 'COMMENTAIRES' in source]; conditions: human
[17] = human, serum; remark: listed apart in the source
[18] = human; remark: listed apart in the source
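Wherever Hepatotoxicity (association with vascular disease) is given: count of indexed literature references reporting vascular liver injury in humans, e.g. peliosis hepatitis, hepatic veno-occlusive disease or Budd-Chiari syndrome.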
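Wherever Hepatotoxicity (benign tumour) is given: value is a count of indexed literature references citing a benign tumour confirmed by histopathology.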
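Wherever Hepatotoxicity (choleostasis) is given: human cholestatic liver injury, shown by histopathology or by peak ALT or AST elevation over alkaline phosphatase ratio below 2, value counts indexed literature reports.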
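Wherever Hepatotoxicity (chronic liver disease) is given: chronic liver injury confirmed by histopathology or persistently raised serum aminotransferase activity beyond 6 months, value given as the count of indexed literature references.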
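Wherever Hepatotoxicity (cirrhosis) is given: value is a count of indexed literature references reporting cirrhosis confirmed by histopathology.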
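Wherever Hepatotoxicity (cytolytic) is given: human cytolytic liver injury, shown by histopathology or by a ratio above 5 of peak ALT or AST elevation to alkaline phosphatase elevation, value counts indexed references.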
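Wherever Hepatotoxicity (granulomatous hepatitis) is given: value is a count of indexed literature references reporting granulomatous liver disease confirmed by histopathology.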
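Wherever Hepatotoxicity (malignant tumour) is given: malignant tumour confirmed by histopathology, value gives the count of indexed literature references reporting it.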
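Wherever Hepatotoxicity (severe hepatitis) is given: human clinical data: severe hepatitis, meaning potentially life-threatening liver failure or clinically observed cases, the value counts how many indexed literature references report it.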
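Wherever Hepatotoxicity (steatosis) is given: steatosis confirmed by histopathology, value is the count of indexed references.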

Structure (SMILES) | Hepatotoxicity (animal toxicity known) [1] | Hepatotoxicity (cirrhosis) [2] | Hepatotoxicity (severe hepatitis) [3] | Hepatotoxicity (granulomatous hepatitis) [4] | Hepatotoxicity (benign tumour) [5] | Hepatotoxicity (acute) [6] [%] | Hepatotoxicity (choleostasis) [7] | Hepatotoxicity (steatosis) [8] | Hepatotoxicity (cytolytic) [9] | Hepatotoxicity (time to onset) [10] | Hepatotoxicity (malignant tumour) [11] | Hepatotoxicity (acute) [12] | Hepatotoxicity (chronic liver disease) [13] | Hepatotoxicity (mechanism) [14] | Hepatotoxicity (moderate) [15] [%] | Hepatotoxicity (comment) [16] | Hepatotoxicity (moderate) [17] | Hepatotoxicity (association with vascular disease) [18] | other results
FC(F)OC(F)C(F)(F)F (stereo not drawn) | yes | 0 | 3 | 0 | 0 | 0 | 0 | 0 | 4 | 1 day - 12 days | 0 | 4 | 0 | Reactive metabolite, Allergic | 11.1 | AC_ANTI-TFA | 2 | 0 | 
CC(=O)Oc1ccccc1C(=O)O [ASPIRIN] | yes | 1 | 6 | 3 | 0 | 0 | 2 | 0 | 26 | 1 week - 5 years | 0 | 31 | 5 | Dose-dependant, Reactive metabolite | 66 | #S.REYE | 30 | 0 | 
CO/N=C(\C(=O)N[C@@H]1C(=O)N2C(C(=O)O)=C(CSc3nc(=O)c(=O)[nH]n3C)CS[C@H]12)c1csc(N)n1 [CEFTRIAXONE] | yes | 0 | 0 | 0 | 0 | 4.6 | 2 | 0 | 3 | 2 days - 25 days | 0 | 7 | 0 | Dose-dependant | 30 | PSEUDOLITHIASE | 71 | 0 | 
O=C(O)c1cn(C2CC2)c2cc(N3CCNCC3)c(F)cc2c1=O [CIPROFLOXACIN] | yes | 0 |  | 0 | 0 |  | 12 | 1 | 7 | 2 days - 6 months | 0 | 21 | 1 | Allergic, Dose-dependant |  | DUCTOPENIE AC_ANTI-N/-ADN | 114 | 0 | Hepatotoxicity (severe hepatitis) ([3]; Liver): 5; Hepatotoxicity (acute) ([6]; Liver): 0.2%; Hepatotoxicity (moderate) ([15]; Liver): 46.4%
CN(C)CCCN1c2ccccc2CCc2ccc(Cl)cc21 [CLOMIPRAMINE] | yes | 0 | 0 | 0 | 0 | 0 | 2 | 0 | 3 | 1 week - 4 years | 0 | 6 | 0 | Allergic | 10.7 | RC/AMINEPTINE | 11 | 0 | 
CC(=O)[C@@]1(O)CC[C@H]2[C@@H]3C=C(Cl)C4=CC(=O)[C@@H]5C[C@@H]5[C@]4(C)[C@H]3CC[C@@]21C [CYPROTERONE] | yes | 1 | 13 | 0 | 1 | 13 | 3 | 0 | 20 | 4 days - 10 years | 5 | 21 | 1 | Dose-dependant | 20 | AC_ANTI-N/pCN | 4 | 0 | 
O=c1[nH]cc(F)c(=O)[nH]1 [FLUOROURACIL] | yes | 1 | 2 | 0 | 0 | 25 | 1 | 4 | 2 | 1 month - 1 year | 0 | 4 | 0 | Dose-dependant, Toxic Metabolite | 61.2 | CHOLANGITE/IAH I/LEVAMISOLE | 15 | 1 | 
C=COCC(F)(F)F [FLUROXENE] | yes | 0 | 2 | 0 | 0 | 0 | 0 | 0 | 3 | 1 day - 5 days | 0 | 4 | 0 | Toxic Metabolite | 30.4 | I/PHENOBARBITAL/PHENYTOINE | 2 | 0 | 
CC1(C)S[C@@H]2[C@H](NC(=O)Cc3ccccc3)C(=O)N2[C@H]1C(=O)O [PENICILLIN G] | yes | 0 | 1 | 3 | 0 | 0 | 9 | 0 | 5 | 0.5 hour - 18 days | 0 | 17 | 1 | Allergic | 13.2 | CHOLESTASE_PROLONGEE CHOLANGITE AC_ANTI-N | 9 | 0 | 
CC1=C(/C=C/C(C)=C/C=C/C(C)=C/CO)C(C)(C)CCC1 [RETINOL] | yes | 22 |  |  | 0 |  |  | 22 |  | 11 days - 17.5 years | 0 | 0 | 26 |  |  | I/ALCOOL | 8 | 10 | Hepatotoxicity (severe hepatitis) ([3]; Liver): 1; Hepatotoxicity (granulomatous hepatitis) ([4]; Liver): 0; Hepatotoxicity (acute) ([6]; Liver): 0%; Hepatotoxicity (choleostasis) ([7]; Liver): 0; Hepatotoxicity (cytolytic) ([9]; Liver): 0; Hepatotoxicity (mechanism) ([14]; Liver): Dose-dependant; Hepatotoxicity (moderate) ([15]; Liver): 33%
CC(=O)N[C@H]1[C@@H](O[C@H]2[C@H](O)[C@@H](O)[C@H](O[C@H]3[C@H](CS(=O)(=O)O)[C@@H](OS(=O)(=O)O)[C@@H](O[C@H]4[C@H](O)[C@@H](OS(=O)(=O)O)C(O)O[C@H]4C(=O)O)O[C@@H]3O)O[C@@H]2C(=O)O)O[C@H](COS(=O)(=O)O)[C@@H](O)[C@@H]1O (stereo partly drawn) [SODIUM HEPARIN] | yes | 0 | 1 | 0 | 0 | 0 | 1 | 0 | 3 | 2 days - 2 weeks | 0 | 4 | 0 | Dose-dependant | 90 | RUPTURE_HEPATIQUE | 20 | 0 | 
